Legend:
[1] = biological target: T1, Histamine H1 receptor (Homo sapiens, UniProt P35367); details: HEK293T, time 4.0 hrs
[2] = biological target: T1, Histamine H1 receptor; details: HEK293T, time 4.0 hrs; remark: listed apart in the source
[3] = biological target: T1, Histamine H1 receptor; type: cell-based; details: hek293t
[4] = biological target: T1, Histamine H1 receptor; assay: biochemical; type: cell-based, HEK293T
Description: Displacement of [3H]-mepyramine from human histamine H1 receptor expressed in HEK293T cells assessed as inhibition constant incubated for 4 hrs by competitive binding assay

[5] = biological target: T1, Histamine H1 receptor; assay: biochemical; type: cell-based, HEK293T; remark: listed apart in the source
Description: Displacement of [3H]-mepyramine from human histamine H1 receptor expressed in HEK293T cells assessed as dissociation constant incubated for 4 hrs by competitive binding assay

T1 sequence (P35367 whole entry): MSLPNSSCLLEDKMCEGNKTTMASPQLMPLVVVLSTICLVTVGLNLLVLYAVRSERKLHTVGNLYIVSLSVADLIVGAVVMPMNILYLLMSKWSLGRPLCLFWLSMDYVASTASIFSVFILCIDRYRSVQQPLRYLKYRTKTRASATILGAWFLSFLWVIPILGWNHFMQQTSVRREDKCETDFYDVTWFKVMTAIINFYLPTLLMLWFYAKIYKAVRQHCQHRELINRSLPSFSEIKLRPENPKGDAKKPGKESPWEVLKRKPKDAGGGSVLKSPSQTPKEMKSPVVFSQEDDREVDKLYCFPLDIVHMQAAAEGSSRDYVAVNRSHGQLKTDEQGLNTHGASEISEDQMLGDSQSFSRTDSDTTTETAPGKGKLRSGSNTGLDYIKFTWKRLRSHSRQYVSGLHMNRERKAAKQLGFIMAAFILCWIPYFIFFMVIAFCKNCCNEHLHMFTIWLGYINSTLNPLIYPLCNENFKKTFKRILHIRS

Structure (SMILES) | Ka [1] | Retention time [2] | Dissociation rate constant (koff) [3] | Ki [4] | Kd [5]
O=C(O)CCCCCCN1CCC(Oc2ccccc2Cc2ccccc2)CC1 | 2.5 10^6/M/min | 13 min | 0.00127 s⁻¹ |  | 
COc1ccc(Cc2ccccc2)c(OC2CCN(C)CC2)c1 | 60 10^6/M/min | 2 min | 0.0083 s⁻¹ |  | 
O=C(O)CCCCN1CCC(Oc2ccccc2Cc2ccccc2)CC1 | 3.2 10^6/M/min | 23 min | 0.00075 s⁻¹ |  | 
Cc1ccc(/C(=C\CN2CCCC2)c2ccccn2)cc1 [TRIPROLIDINE] | 36 10^6/M/min |  |  |  | 
c1ccc(Cc2ccccc2OC2CCN(CCCCc3nnn[nH]3)CC2)cc1 | 3.7 10^6/M/min | 48 min | 0.00035 s⁻¹ |  | 
O=C(O)CCCN1CCC(Oc2ccccc2Cc2ccccc2)CC1 | 2.9 10^6/M/min | 10 min | 0.0017 s⁻¹ |  | 
CN1CCC(Oc2cc(CO)ccc2Cc2ccccc2)CC1 | 98 10^6/M/min | 4 min | 0.00417 s⁻¹ |  | 
O=C(O)CCCCCCCN1CCC(Oc2ccccc2Cc2ccccc2)CC1 | 2.37 10^6/M/min | 15 min | 0.00115 s⁻¹ |  | 
CN(C)CC/C=C1/c2ccccc2COc2ccc(CC(=O)O)cc21 | 1.9 10^6/M/min | 190 min |  |  | 
O=C(O)CCCCCN1CCC(Oc2ccccc2Cc2ccccc2)CC1 | 4 10^6/M/min | 17 min | 0.001 s⁻¹ |  | 
O=C(O)COCCN1CCN([C@H](c2ccccc2)c2ccc(Cl)cc2)CC1 | 1.4 10^6/M/min |  |  |  | 

Other lines, results leading:

Ka [1] | Retention time [2] | Dissociation rate constant (koff) [3] | Ki [4] | Kd [5] | Structure (SMILES)
0.06 10^6/M/min | 1.2 min | 0.017 s⁻¹ |  |  | CN1CCC(Oc2cc(C(=O)O)ccc2Cc2ccccc2)CC1
0.62 10^6/M/min | 18 min | 0.000917 s⁻¹ |  |  | CN1CCC(Oc2cc(/C=C/C(=O)O)ccc2Cc2ccccc2)CC1
1.3 10^6/M/min | 6 min | 0.00283 s⁻¹ |  |  | CN1CCC(Oc2cc(CC(=O)O)ccc2Cc2ccccc2)CC1
1.6 10^6/M/min | 3 min | 0.000917 s⁻¹ |  |  | CN1CCC(Oc2c(/C=C/C(=O)O)cccc2Cc2ccccc2)CC1
0.5 10^6/M/min | 4.2 min | 0.004 s⁻¹ |  |  | CN1CCC(Oc2c(Cc3ccccc3)cccc2C(=O)O)CC1
2.9 10^6/M/min | 9 min | 0.00183 s⁻¹ |  |  | O=C(O)CCN1CCC(Oc2ccccc2Cc2ccccc2)CC1
2.08 10^6/M/min | 12.1 min | 0.00138 s⁻¹ | 39.8 nM | 39.8 nM | CC(=O)Cc1cccc(Cc2ccccc2)c1OC1CCN(C)CC1
160 10^6/M/min | 2 min |  |  |  | CN1CCC(Oc2ccccc2Cc2ccccc2)CC1
27 10^6/M/min | 1.4 min | 0.0122 s⁻¹ |  |  | CN1CCC(Oc2c(CO)cccc2Cc2ccccc2)CC1
